Results: PubChem BioAssay (NCI)
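Abbreviation: GI50, concentration required for 50% inhibition of growth. TGI: concentration producing complete growth inhibition.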

Legend:
Test in all cases: DTP human tumour cell line panel, 384-well format
RXF 393 renal = system: RXF 393 renal
SK-MEL-28 melanoma = system: SK-MEL-28 melanoma
MALME-3M melanoma = system: MALME-3M melanoma
HCT-116 colon = system: HCT-116 colon
HOP-62 NSCLC = system: HOP-62 NSCLC
NCI-H322M lung = system: NCI-H322M lung
BT-549 breast = system: BT-549 breast
OVCAR-3 ovarian = system: OVCAR-3 ovarian
SK-MEL-2 melanoma = system: SK-MEL-2 melanoma
786-0 renal = system: 786-0 renal
NCI-H226 lung = system: NCI-H226 lung
EKVX NSCLC = system: EKVX NSCLC
KM12 colon = system: KM12 colon
NCI-H522 lung = system: NCI-H522 lung
IGROV1 ovarian = system: IGROV1 ovarian
DU-145 prostate = system: DU-145 prostate
UO-31 renal = system: UO-31 renal
SF-295 CNS = system: SF-295 CNS
NCI-H460 NSCLC = system: NCI-H460 NSCLC
COLO 205 colon = system: COLO 205 colon
SF-268 CNS = system: SF-268 CNS
PC-3 prostate = system: PC-3 prostate
UACC-257 melanoma = system: UACC-257 melanoma
NCI-H23 lung = system: NCI-H23 lung
K-562 leukemia = system: K-562 leukemia
UACC-62 melanoma = system: UACC-62 melanoma
MCF7 breast = system: MCF7 breast
U251 glioblastoma = system: U251 glioblastoma
SNB-75 CNS = system: SNB-75 CNS
MDA-MB-435 melanoma = system: MDA-MB-435 melanoma
A498 renal = system: A498 renal
SF-539 CNS = system: SF-539 CNS
A549 NSCLC = system: A549 NSCLC
CAKI-1 renal = system: CAKI-1 renal
MDA-MB-231 breast = system: MDA-MB-231 breast
MDA-MB-468 breast = system: MDA-MB-468 breast
OVCAR-8 ovarian = system: OVCAR-8 ovarian
HCT-15 colon = system: HCT-15 colon
HL-60(TB) leukemia = system: HL-60(TB) leukemia
SR leukemia = system: SR leukemia
TK-10 renal = system: TK-10 renal
SNB-19 CNS = system: SNB-19 CNS
HS 578T breast = system: HS 578T breast
MOLT-4 leukemia = system: MOLT-4 leukemia
T-47D breast = system: T-47D breast
SK-OV-3 ovarian = system: SK-OV-3 ovarian
ACHN renal = system: ACHN renal
SW-620 colon = system: SW-620 colon
HT29 colon = system: HT29 colon
OVCAR-4 ovarian = system: OVCAR-4 ovarian
OVCAR-5 ovarian = system: OVCAR-5 ovarian
HOP-92 NSCLC = system: HOP-92 NSCLC
M14 melanoma = system: M14 melanoma
SK-MEL-5 melanoma = system: SK-MEL-5 melanoma
SN12C renal = system: SN12C renal

COc1cc(Nc2ncc(F)c(Nc3ccc4c(n3)N(COP(=O)(O)O)C(=O)C(C)(C)O4)n2)cc(OC)c1OC
GI50 (RXF 393 renal): 241 nM
TGI (RXF 393 renal): 887 nM
GI50 (SK-MEL-28 melanoma): 2340 nM
TGI (SK-MEL-28 melanoma): > 100000 nM
GI50 (MALME-3M melanoma): 2300 nM
TGI (MALME-3M melanoma): > 100000 nM
GI50 (HCT-116 colon): 1930 nM
TGI (HCT-116 colon): 6520 nM
GI50 (HOP-62 NSCLC): 1450 nM
TGI (HOP-62 NSCLC): 3710 nM
GI50 (NCI-H322M lung): 1750 nM
TGI (NCI-H322M lung): 4850 nM
GI50 (BT-549 breast): 1300 nM
TGI (BT-549 breast): 2740 nM
GI50 (OVCAR-3 ovarian): 1970 nM
TGI (OVCAR-3 ovarian): 11100 nM
GI50 (SK-MEL-2 melanoma): 2930 nM
TGI (SK-MEL-2 melanoma): 16500 nM
GI50 ([…]-0 renal): 1320 nM
TGI (786-0 renal): 2990 nM
GI50 (NCI-H226 lung): 640 nM
TGI (NCI-H226 lung): 2490 nM
GI50 (EKVX NSCLC): 1090 nM
TGI (EKVX NSCLC): 2630 nM
GI50 (KM12 colon): 2900 nM
TGI (KM12 colon): 10900 nM
GI50 (NCI-H522 lung): 679 nM
TGI (NCI-H522 lung): 2200 nM
GI50 (IGROV1 ovarian): 427 nM
TGI (IGROV1 ovarian): 1600 nM
GI50 (DU-145 prostate): 1890 nM
TGI (DU-145 prostate): 7540 nM
GI50 (UO-31 renal): 654 nM
TGI (UO-31 renal): 2830 nM
GI50 (SF-295 CNS): 2500 nM
TGI (SF-295 CNS): 88300 nM
GI50 (NCI-H460 NSCLC): 534 nM
TGI (NCI-H460 NSCLC): 11300 nM
GI50 (COLO 205 colon): 1640 nM
TGI (COLO 205 colon): 3670 nM
GI50 (SF-268 CNS): 1450 nM
TGI (SF-268 CNS): 2810 nM
GI50 (PC-3 prostate): 2730 nM
TGI (PC-3 prostate): 12300 nM
GI50 (UACC-257 melanoma): 4060 nM
TGI (UACC-257 melanoma): > 100000 nM
GI50 (NCI-H23 lung): 1380 nM
TGI (NCI-H23 lung): 4400 nM
GI50 (K-562 leukemia): 2630 nM
TGI (K-562 leukemia): 10800 nM
GI50 (UACC-62 melanoma): 1220 nM
TGI (UACC-62 melanoma): 3450 nM
GI50 (MCF7 breast): 1910 nM
TGI (MCF7 breast): > 100000 nM
GI50 (U251 glioblastoma): 1700 nM
TGI (U251 glioblastoma): 6870 nM
GI50 (SNB-75 CNS): 505 nM
TGI (SNB-75 CNS): 1680 nM
GI50 (MDA-MB-435 melanoma): 2350 nM
TGI (MDA-MB-435 melanoma): 25400 nM
GI50 (A498 renal): 1740 nM
TGI (A498 renal): 3350 nM
GI50 (SF-539 CNS): 618 nM
TGI (SF-539 CNS): 1870 nM
GI50 (A549 NSCLC): 1520 nM
TGI (A549 NSCLC): 3120 nM
GI50 (CAKI-1 renal): 974 nM
TGI (CAKI-1 renal): 2160 nM
GI50 (MDA-MB-231 breast): 1980 nM
TGI (MDA-MB-231 breast): 5780 nM
GI50 (MDA-MB-468 breast): 1700 nM
TGI (MDA-MB-468 breast): 3340 nM
GI50 (OVCAR-8 ovarian): 1610 nM
TGI (OVCAR-8 ovarian): 3010 nM
GI50 (HCT-15 colon): 3060 nM
TGI (HCT-15 colon): > 100000 nM
GI50 (HL-60(TB) leukemia): 1570 nM
TGI (HL-60(TB) leukemia): 3030 nM
GI50 (SR leukemia): 1510 nM
TGI (SR leukemia): 2950 nM
GI50 (TK-10 renal): 1380 nM
TGI (TK-10 renal): 3130 nM
GI50 (SNB-19 CNS): 1920 nM
TGI (SNB-19 CNS): 4970 nM
GI50 (HS 578T breast): 1260 nM
TGI (HS 578T breast): 2550 nM
GI50 (MOLT-4 leukemia): 1380 nM
TGI (MOLT-4 leukemia): 3030 nM
GI50 (T-47D breast): 2370 nM
TGI (T-47D breast): 9310 nM
GI50 (SK-OV-3 ovarian): 871 nM
TGI (SK-OV-3 ovarian): 2230 nM
GI50 (ACHN renal): 1250 nM
TGI (ACHN renal): 5820 nM
GI50 (SW-620 colon): 1880 nM
TGI (SW-620 colon): 6610 nM
GI50 (HT29 colon): 1410 nM
TGI (HT29 colon): 4490 nM
GI50 (OVCAR-4 ovarian): 1450 nM
TGI (OVCAR-4 ovarian): 4120 nM
GI50 (OVCAR-5 ovarian): 1940 nM
TGI (OVCAR-5 ovarian): 42800 nM
GI50 (HOP-92 NSCLC): 1260 nM
TGI (HOP-92 NSCLC): 2600 nM
GI50 (M14 melanoma): 2410 nM
TGI (M14 melanoma): 38800 nM
GI50 (SK-MEL-5 melanoma): 2510 nM
TGI (SK-MEL-5 melanoma): 6660 nM
GI50 (SN12C renal): 724 nM
TGI (SN12C renal): 7140 nM
